Laboratory results: US11008336B2, “Compounds useful for inhibiting RORγt” (Eli Lilly and Company, priority 2017, dated 2021)

What was measured:
[1] = test system: anti-CD3/anti-CD28/IL-23 stimulated IL-17 secretion in PBMC's; assay: PBMC IL-17 secretion ELISA; format: cell-based; conditions: Homo sapiens, anti-CD3/anti-CD28/IL-23 stimulation, 48 hours, mean ± standard deviation, read-out: hPBMC IL-17 ELISA (EC50)
Experimental: PBMC's are isolated from whole blood buffy coats by first combining fresh buffy coats with equal volumes of phosphate buffered saline. Thirty five mL of PBS/buffy coat solution are then gently overlaid onto 15 mL of Ficoll in 50 mL conical tubes. Following centrifugation for 30 minutes at 500×g (with slow acceleration and deceleration) the top layer of plasma is discarded and the layer of cells along the Ficoll interface is collected and pooled. Each 250 mL tube is filled to the top with room temperature RPMI-1640 media. Tubes are spun for 10 minutes at 500×G (with slow acceleration and deceleration), the media is removed by aspiration, and the wash step is repeated. Cells are resuspended in ice cold Recovery Cell Culture Freezing Medium from Life Technologies (Catalog number 12648-010) on ice. The cell concentration is adjusted to 66.7 million cells/mL. Cell are slow frozen at −1° C./minute in vials with 100 million cells and stored in liquid nitrogen.
PBMC are brought out of thaw by resuspending with 1 mL of complete media (RPMI-1640 containing 30 mM HEPES, 100 units/mL penicillin, 100 μg/mL streptomycin, 3.25 mM L-Glutamine, 0.2 μM beta-mercaptoethanol, and 10% FBS) followed by the drop wise addition of 2 mL, 4 mL, 8 mL, and 16 mL of complete media with gentle swirling. Cells are spun down for 5 minutes and the cell pellet is resuspended in complete media. Clumps of cells are broken up by running the cell solution through a 23 gauge syringe needle and a […] cell strainer. One hundred thousand cells per well are added to 384 well polystyrene tissue culture treated flat bottomed plates in a total of 30 μL. Stimulation cocktail containing anti-human CD3 antibody, anti-human CD28 antibody, IL-23 and compounds prepared in complete media are added to the cells simultaneously in a total volume of 30 μL. The final concentration of added stimulants is 160 ng/mL, 500 ng/mL, and 5 ng/mL for anti-CD3 antibody, anti-CD28 antibody, and IL-23 respectively and 0.3% for DMSO. Plates are sealed with AERASEAL® sealing film and incubated for 48 hours at 37° C., 95% humidity, and 5% CO2.
Following the incubation period, the plates are spun at 200×g for five minutes. Supernatants are diluted 1:1 with equal volume 1% BSA/PBS and tested for IL-17 with a human IL-17 ELISA kit from R&D system (catalog #D317E) according to the protocol provided with the kit with one exception—the colorimetric substrate OPD (o-phenylenediamine dihydrochloride, Sigma Cat #P6912) is used instead of the substrate supplied in the kit. Absorbance at 492 nm is measured with the Envision multi-label plate reader. A492 values are converted to concentration of IL-17 based on the IL-17 standard curve as shown below: pg/mL IL-17=EC50*[[(Top-Bottom)/(A492-Bottom)]-1](1/-Hill). IC50's for inhibition of IL-17 secretion is calculated based on converted values using a standard 4-parameter fit with maximum inhibition determined from the average values of wells with no added stimulants nor compounds and minimum inhibition from the average values of wells with stimulants alone and no added compound.

[2] = test system: PBMC; assay: cells; format: cell-based; conditions: Homo sapiens, 48 h, read-out: Cell TiterGlo Viability (EC50, μM)
Experimental: PBMC's are isolated from whole blood buffy coats by first combining fresh buffy coats with equal volumes of phosphate buffered saline. Thirty five mL of PBS/buffy coat solution are then gently overlaid onto 15 mL of Ficoll in 50 mL conical tubes. Following centrifugation for 30 minutes at 500×g (with slow acceleration and deceleration) the top layer of plasma is discarded and the layer of cells along the Ficoll interface is collected and pooled. […] Tubes are spun for 10 minutes at 500×G (with slow acceleration and deceleration), the media is removed by aspiration, and the wash step is repeated.
Cells are spun down for 5 minutes and the cell pellet is resuspended in complete media. Clumps of cells are broken up by running the cell solution through a 23 gauge syringe needle and a 40 μM cell strainer.
Equal volumes of Cell TITERGLO® cell viability testing reagent (Promega Cat #G7573) are added to the cells remaining in the plates, and following a fifteen minute incubation with gentle shaking at room temperature luminescence is measured with the Envision multi-label plate reader. Percent cell death is calculated by setting 100% activity (cell death) to zero luminescence units and minimum activity (max number of viable cells) as the average luminescence units of wells containing stimulants alone and no added compound. IC50's are calculated using a standard four parameter fit.

[3] = biological target: human RORg ligand binding domain fused to yeast GAL4 DNA binding domain (Homo sapiens (Human), UniProt P51449); assay: HEK293 RORg GAL4 receptor-reporter assay; format: cell-based; conditions: HEK293 cells, RORg-GAL4/pGL4.31 luciferase, 18 hours; mean ± standard deviation; read-out: hIC50
human RORg ligand binding domain fused to yeast GAL4 DNA binding domain, sequence (P51449 269-508): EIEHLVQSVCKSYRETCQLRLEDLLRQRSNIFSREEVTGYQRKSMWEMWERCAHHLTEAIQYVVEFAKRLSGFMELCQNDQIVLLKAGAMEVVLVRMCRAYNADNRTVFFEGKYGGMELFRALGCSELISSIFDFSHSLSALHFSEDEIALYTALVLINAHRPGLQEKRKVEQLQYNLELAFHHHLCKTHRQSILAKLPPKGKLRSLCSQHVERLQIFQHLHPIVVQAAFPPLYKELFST

[4] = biological target: human RAR-related orphan receptor beta (hRORβ) (Homo sapiens (Human), UniProt Q92753); assay: RORβ receptor-ligand competition binding assay; conditions: His-tagged hRORβ; mean ± standard deviation; read-out: RORb Ki
human RAR-related orphan receptor beta (hRORβ), sequence (Q92753 whole entry): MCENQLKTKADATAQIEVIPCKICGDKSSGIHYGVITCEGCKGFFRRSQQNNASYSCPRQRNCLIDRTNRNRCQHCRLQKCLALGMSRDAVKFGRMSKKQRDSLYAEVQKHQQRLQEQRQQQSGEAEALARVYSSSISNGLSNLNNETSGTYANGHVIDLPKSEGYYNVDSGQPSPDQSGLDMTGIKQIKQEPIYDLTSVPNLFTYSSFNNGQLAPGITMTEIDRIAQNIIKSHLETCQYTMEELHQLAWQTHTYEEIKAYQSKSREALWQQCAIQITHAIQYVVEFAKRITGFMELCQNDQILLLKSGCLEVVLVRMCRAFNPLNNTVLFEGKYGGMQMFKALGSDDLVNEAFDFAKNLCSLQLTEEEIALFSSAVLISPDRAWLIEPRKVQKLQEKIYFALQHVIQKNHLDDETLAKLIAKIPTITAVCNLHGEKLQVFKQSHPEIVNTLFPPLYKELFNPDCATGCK
Experimental: (§1) His-tagged human RAR-related orphan receptor alpha (hRORα), human RAR-related orphan receptor beta (hRORβ), and human RAR-related orphan receptor gamma (hRORγ) are used for receptor-ligand competition binding assays to determine Ki values. Typical procedures are provided below.
(§2) The final wells contain 20 μg/mL aprotinin and 20 μg/mL leupeptin and 10 μM Pefabloc. Typically, receptor binding assays include radio-labeled ligands, such as 7 nM [^3H]-25-hydroxycholesterol for alpha binding, 20 nM [^3H]-3-[[4-[[3-(2,6-dichlorophenyl)-5-isopropyl-isoxazol-4-yl]methoxy]-N,2-dimethyl-anilino]methyl]benzoic acid for beta binding, and 6 nM [3H]-25-hydroxycholesterol for gamma binding, and 0.5 μg RORα receptor, 0.03 μg RORβ receptor, or 0.13 μg RORγ receptor per well. Assays are typically run in 96-well format. […] Plates are mixed for 30 minutes on an orbital shaker at room temperature. After an incubation of 4 hours, plates are read in a Wallac MICROBETA® counter.
(§3) The data are used to calculate an estimated IC50 using a four parameter logistic fit. The Kd for [^3H]-25-hydroxycholesterol for RORa and RORg, and [^3H]-3-[[4-[[3-(2,6-dichlorophenyl)-5-isopropyl-isoxazol-4-yl]methoxy]-N,2-dimethyl-anilino]methyl]benzoic acid for RORb binding, is determined by saturation binding. The IC50 values for compounds are converted to Ki using the Cheng-Prushoff equation.

[5] = biological target: human RAR-related orphan receptor alpha (hRORα) (Homo sapiens (Human), UniProt P35398); assay: RORα receptor-ligand competition binding assay; conditions: His-tagged hRORα, [3H]-25-hydroxycholesterol; mean ± standard deviation; read-out: RORa Ki
human RAR-related orphan receptor alpha (hRORα), sequence (P35398 whole entry): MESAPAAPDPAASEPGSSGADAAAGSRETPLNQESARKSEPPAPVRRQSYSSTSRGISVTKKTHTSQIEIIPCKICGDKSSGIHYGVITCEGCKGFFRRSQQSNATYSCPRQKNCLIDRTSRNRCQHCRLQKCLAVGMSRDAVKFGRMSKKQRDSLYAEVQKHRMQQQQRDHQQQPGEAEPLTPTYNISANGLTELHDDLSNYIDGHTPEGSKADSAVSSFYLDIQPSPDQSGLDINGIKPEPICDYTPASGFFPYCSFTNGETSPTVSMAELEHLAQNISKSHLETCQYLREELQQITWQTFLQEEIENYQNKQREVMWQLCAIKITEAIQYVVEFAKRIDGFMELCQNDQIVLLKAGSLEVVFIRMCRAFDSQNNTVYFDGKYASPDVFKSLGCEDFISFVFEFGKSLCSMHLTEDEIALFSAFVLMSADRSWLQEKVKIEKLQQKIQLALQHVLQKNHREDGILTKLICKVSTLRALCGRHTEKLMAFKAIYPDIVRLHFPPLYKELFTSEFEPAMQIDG
Experimental: as §1, §2, §3

[6] = biological target: human RAR-related orphan receptor gamma (hRORγ) (Homo sapiens (Human), UniProt P51449); assay: RORγ receptor-ligand competition binding assay; conditions: His-tagged hRORγ, [3H]-25-hydroxycholesterol; mean ± standard deviation; read-out: RORg Ki
human RAR-related orphan receptor gamma (hRORγ), sequence (P51449 whole entry): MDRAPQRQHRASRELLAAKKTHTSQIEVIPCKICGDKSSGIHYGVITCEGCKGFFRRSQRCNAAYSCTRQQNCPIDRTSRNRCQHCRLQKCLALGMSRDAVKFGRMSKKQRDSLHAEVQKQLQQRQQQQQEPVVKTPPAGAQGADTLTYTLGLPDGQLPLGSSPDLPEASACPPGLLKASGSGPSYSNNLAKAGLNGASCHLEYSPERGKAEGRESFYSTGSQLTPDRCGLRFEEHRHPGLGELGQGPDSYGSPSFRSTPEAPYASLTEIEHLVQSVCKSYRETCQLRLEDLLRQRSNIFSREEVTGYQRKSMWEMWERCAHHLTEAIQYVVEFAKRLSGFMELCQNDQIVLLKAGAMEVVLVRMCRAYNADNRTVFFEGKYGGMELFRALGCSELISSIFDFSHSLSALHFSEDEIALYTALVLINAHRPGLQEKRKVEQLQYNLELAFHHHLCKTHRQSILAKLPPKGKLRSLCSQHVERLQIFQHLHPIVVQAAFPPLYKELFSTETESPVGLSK
Experimental: as §1, §2, §3

[7] = test system: GPI induced arthritis in DBA/1 mice; assay: Glucose-6-phosphate isomerase (GPI) induced arthritis model; format: in vivo, mouse; conditions: 100 mg/Kg orally once daily
Experimental: The GPI induced arthritis model is adapted from K. Iwanami et al Arthritis Rheumatism 58, 754-763, 2008 and D. Schubert et al. J Immunology 172, 4503-4509, 2004. Mice (8-9 week old male DBA/1 mice) (Harlan) are randomly assigned into treatment groups based on body weights collected on the day of immunization (day 0). On the day of immunization (day 0), a 1:1 (v:v) mixture of recombinant human GPI (diluted to 4 mg/mL in PBS, Gibco) and complete Freund's adjuvant (CFA, Sigma) is mixed on a high speed homogenizer (Omni) for 40 minutes in a cold room. A final concentration of 2 mg/mL GPI is achieved in the emulsion. Mice are injected at the base of the tail (2 sites of injection, subcutaneously, 100 μL each site) with the GPI emulsion. Test compounds are dosed orally starting on the same day as immunization (day 0). Starting on day 0, each paw is scored for severity of joint swelling based on a 0 to 3 scoring system (See K. Iwanami et al Arthritis Rheumatism 58, 754-763, 2008. The clinical score represents the total score of all 4 paws (maximum score=12). Clinical scores are assessed on days 0, 2, 4, 7, 8, 9, 10, 11, 12, 14, 16, 18, and 21.
The AUC is calculated by a trapezoid method for clinical score over time from the day of immunization (day 0) to day 21. Test p-values were derived from Student's t-test.

Compound | EC50 [1] [µM] | EC50 [2] [µM] | IC50 [3] [µM] | Ki [4] [µM] | Ki [5] [µM] | Ki [6] [µM] | severity of paw swelling and mean clinical scores compared to the vehicle group [7] | reduction in clinical score AUC ([7]; compared to the vehicle group) [%] | Clinical Score AUC (mean ± SEM) ([7]; day 0 to day 21, male DBA/1 mice)
CCS(=O)(=O)c1ccc(CNC(=O)c2cc3c(s2)C2(CCN(C(C)c4cnc(C(F)(F)F)nc4C)CC2)O[C@@H](C)C3)cc1 (single isomer, unassigned; isomer 1) [Example 66, (5′S)-N-[4-(Ethylsulfonyl)benzyl]-5′-methyl-1-{1-[4-methyl-2-(trifluoromethyl)pyrim-idin-5-yl]ethyl}-4′,5′-dihydrospiro[piperidine-4,7′-thieno[2,3-c]pyran]-2′-carboxamide isomer 1] | 0.0133 ± 0.0047 | > 1 | 0.0314 ± 0.0112 | – | – | – | – | – | –
CCS(=O)(=O)c1ccc(CNC(=O)c2cc3c(s2)C2(CCN(C(C)c4ccc(C(F)(F)F)nc4)CC2)OC(C)C3)cc1 (single isomer, unassigned; isomer 2) [Example 42, N-[4-(Ethylsulfonyl)benzyl]-5′-methyl-1-{1-[6-(trifluoromethyl)pyridin-3-yl]ethyl}-4′,5′-dihydrospiro[piperidine-4,7′-thieno[2,3-c]pyran]-2′-carboxamide isomer 2] | 0.0083 ± 0.0038 | > 1 | 0.0199 ± 0.0107 | > 12.5 | > 20.4 | 0.00442 ± 0.0027 | – | – | –
CCS(=O)(=O)c1ccc(CNC(=O)c2cc3c(s2)C2(CCN(C(C)c4ccc(C(F)(F)F)nc4)CC2)OC(C)C3)nc1 (single isomer, unassigned; isomer 2) [Example 46, N-{[5-(Ethylsulfonyl)pyridin-2-yl]methyl}-5′-methyl-1-{1-[6-(trifluoromethyl)pyridin-3-yl]ethyl}-4′,5′-dihydrospiro[piperidine-4,7′-thieno[2,3-c]pyran]-2′-carboxamide isomer 2] | 0.0245 ± 0.0119 | > 1 | – | – | > 20.4 | – | – | – | –
CCS(=O)(=O)c1ccc(CNC(=O)c2cc3c(s2)C2(CCN(C(C)c4cnc(C(F)(F)F)s4)CC2)O[C@@H](C)C3)nc1 (single isomer, unassigned; isomer 2) [Example 55, (5′S)-N-{[5-(Ethylsulfonyl)pyridin-2-yl]methyl}-5′-methyl-1-{1-[2-(trifluoromethyl)-1,3-thiazol-5-yl]ethyl}-4′,5′-dihydrospiro[piperidine-4,7′-thieno[2,3-c]pyran]-2′-carboxamide isomer 2] | 0.0126 ± 0.0081 | > 1 | – | > 12.5 | – | – | reduces severity of paw swelling and maintains lower mean clinical scores | 94 | 7.50 ± 2.08
CCS(=O)(=O)c1ccc(CNC(=O)c2cc3c(s2)C2(CCN(C(C)c4cnc(C(F)(F)F)nc4C)CC2)O[C@@H](C)C3)nc1 (single isomer, unassigned; isomer 2) [Example 69, (5′S)-N-{[5-(Ethylsulfonyl)pyridin-2-yl]methyl}-5′-methyl-1-{1-[4-methyl-2-(trifluoromethyl)pyrim-idin-5-yl]ethyl}-4′,5′-dihydrospiro[piperidine-4,7′-thieno[2,3-c]pyran]-2′-carboxamide isomer 2] | 0.03 ± 0.0185 | > 1 | 0.0154 ± 0.0134 | – | – | – | – | – | –
CCS(=O)(=O)c1ccc(CNC(=O)c2cc3c(s2)C2(CCN([C@H](C)c4cnc(C(F)(F)F)nc4)CC2)O[C@@H](C)C3)cc1 [Example 16, (5′S)—N-[4-(Ethylsulfonyl)benzyl]-5′-methyl-1-{(1R)-1-[2-(trifluoromethyl)pyrimidin-5-yl]ethyl}-4′,5′-dihydrospiro[piperidine-4,7′-thieno[2,3-c]pyran]-2′-carboxamide] | – | > 1 | – | > 12.5 | – | – | – | – | –
CCS(=O)(=O)c1ccc(CNC(=O)c2cc3c(s2)C2(CCN(Cc4ccc(-c5ncon5)cc4F)CC2)O[C@@H](C)C3)nc1 [Example 25, (5′S)-N-{[5-(Ethylsulfonyl)pyridin-2-yl]methyl}-1-[2-fluoro-4-(1,2,4-oxadiazol-3-yl)benzyl]-5′-methyl-4′,5′-dihydrospiro[piperidine-4,7′-thieno[2,3-c]pyran]-2′-carboxamide] | 0.0308 ± 0.0257 | > 1 | 0.0162 ± 0.0097 | – | – | 0.00604 ± 0.00119 | – | – | –
CCS(=O)(=O)c1ccc(CNC(=O)c2cc3c(s2)C2(CCN([C@@H](C)c4ccc(C#N)cc4)CC2)OCC3)cc1 [Example 64, 1-[(1S)-1-(4-Cyanophenyl)ethyl]-N-[4-(ethylsulfonyl)benzyl]-4′,5′-dihydrospiro[piperidine-4,7′-thieno[2,3-c]pyran]-2′-carboxamide] | – | > 3 | – | > 22.7 | – | – | – | – | –
